Results reported in ChEMBL document CHEMBL1141452, “Advances in development of dopaminergic aporphinoids” (J Med Chem, 2007).
pIC50, pKi: −log10 of the molar value.

Columns and labels:
[1] = Inhibition of rat midbrain dopaminergic neuron firing; format: functional; details: read-out: ID50 (the source's name)
[2] = biological target: Tyrosine 3-monooxygenase (Rattus norvegicus) (UniProt P04177); experiment: Inhibition of tyrosine hydroxylase
[3] = biological target: 5-hydroxytryptamine receptor 7 (Homo sapiens, UniProt P34969); experiment: Binding affinity at 5HT7 receptor
Sequence of 5-hydroxytryptamine receptor 7 (P34969 whole entry): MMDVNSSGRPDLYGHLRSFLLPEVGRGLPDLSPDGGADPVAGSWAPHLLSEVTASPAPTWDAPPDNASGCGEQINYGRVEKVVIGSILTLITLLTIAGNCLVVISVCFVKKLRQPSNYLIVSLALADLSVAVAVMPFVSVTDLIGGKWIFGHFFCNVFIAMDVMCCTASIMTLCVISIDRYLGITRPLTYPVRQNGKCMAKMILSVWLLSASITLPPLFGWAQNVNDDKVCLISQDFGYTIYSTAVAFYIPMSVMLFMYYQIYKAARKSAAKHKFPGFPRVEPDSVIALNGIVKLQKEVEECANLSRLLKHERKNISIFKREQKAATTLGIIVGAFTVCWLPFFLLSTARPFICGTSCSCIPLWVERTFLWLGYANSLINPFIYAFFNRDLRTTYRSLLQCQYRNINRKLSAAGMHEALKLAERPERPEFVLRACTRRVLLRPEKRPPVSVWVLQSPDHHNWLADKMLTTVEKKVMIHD

[4] = biological target: D(2) dopamine receptor (Rattus norvegicus, UniProt P61169); experiment: Displacement of [3H]raclopride from rat dopamine D2 receptor
Sequence of D(2) dopamine receptor (P61169 whole entry): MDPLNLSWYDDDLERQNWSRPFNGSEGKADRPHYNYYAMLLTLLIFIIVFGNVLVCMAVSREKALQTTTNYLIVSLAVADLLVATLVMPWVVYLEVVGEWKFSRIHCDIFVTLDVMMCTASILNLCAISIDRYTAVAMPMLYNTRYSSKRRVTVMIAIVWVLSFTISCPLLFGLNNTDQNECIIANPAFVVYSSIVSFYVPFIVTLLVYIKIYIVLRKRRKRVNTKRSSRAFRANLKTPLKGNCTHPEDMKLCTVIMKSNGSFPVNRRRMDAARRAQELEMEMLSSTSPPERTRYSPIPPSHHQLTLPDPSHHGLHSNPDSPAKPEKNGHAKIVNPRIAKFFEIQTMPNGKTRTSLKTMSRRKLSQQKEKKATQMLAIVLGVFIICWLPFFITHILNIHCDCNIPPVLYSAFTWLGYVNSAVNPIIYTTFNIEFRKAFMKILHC

[5] = biological target: T1, 5-hydroxytryptamine receptor 1A (Rattus norvegicus, UniProt P19327); experiment: Displacement of [3H]8-OH-DPAT from rat 5HT1A receptor
T1 sequence (P19327 whole entry): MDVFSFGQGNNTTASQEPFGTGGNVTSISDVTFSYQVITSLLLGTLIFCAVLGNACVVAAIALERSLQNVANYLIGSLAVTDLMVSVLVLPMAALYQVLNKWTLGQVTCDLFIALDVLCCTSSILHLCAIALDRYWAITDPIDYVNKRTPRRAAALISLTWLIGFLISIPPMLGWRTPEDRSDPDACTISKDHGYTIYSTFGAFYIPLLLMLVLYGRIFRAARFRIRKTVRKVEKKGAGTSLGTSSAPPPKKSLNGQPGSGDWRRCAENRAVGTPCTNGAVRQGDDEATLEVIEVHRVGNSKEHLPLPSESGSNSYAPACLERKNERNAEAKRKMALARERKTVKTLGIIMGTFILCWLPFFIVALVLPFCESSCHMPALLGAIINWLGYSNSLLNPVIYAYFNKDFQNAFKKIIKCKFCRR

[6] = biological target: 5-hydroxytryptamine receptor 7 (Rattus norvegicus) (UniProt P32305); experiment: Displacement of [3H]5-HT from rat 5-HT7 receptor
Sequence of 5-hydroxytryptamine receptor 7 (Rattus norvegicus) (P32305 whole entry, looked up): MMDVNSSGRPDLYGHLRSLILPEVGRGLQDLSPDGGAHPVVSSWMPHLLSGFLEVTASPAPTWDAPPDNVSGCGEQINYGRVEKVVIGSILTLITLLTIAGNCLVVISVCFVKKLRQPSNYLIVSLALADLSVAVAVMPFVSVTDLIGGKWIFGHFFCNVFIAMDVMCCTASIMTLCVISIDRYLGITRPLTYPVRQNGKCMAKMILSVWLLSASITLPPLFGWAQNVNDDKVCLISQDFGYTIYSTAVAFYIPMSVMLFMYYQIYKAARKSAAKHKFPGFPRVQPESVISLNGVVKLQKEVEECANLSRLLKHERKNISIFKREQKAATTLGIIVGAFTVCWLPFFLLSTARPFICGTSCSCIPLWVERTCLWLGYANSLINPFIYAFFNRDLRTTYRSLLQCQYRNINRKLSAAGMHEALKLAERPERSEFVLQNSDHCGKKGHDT

[7] = system: Cerebrum; experiment: Inhibition of lipid peroxidation in rat cerebrum; format: functional, tissue-based
[8] = biological target: D(1A) dopamine receptor (Rattus norvegicus, UniProt P18901); experiment: Displacement of [3H]SCH-23390 from rat dopamine D1 receptor
Sequence of D(1A) dopamine receptor (P18901 whole entry): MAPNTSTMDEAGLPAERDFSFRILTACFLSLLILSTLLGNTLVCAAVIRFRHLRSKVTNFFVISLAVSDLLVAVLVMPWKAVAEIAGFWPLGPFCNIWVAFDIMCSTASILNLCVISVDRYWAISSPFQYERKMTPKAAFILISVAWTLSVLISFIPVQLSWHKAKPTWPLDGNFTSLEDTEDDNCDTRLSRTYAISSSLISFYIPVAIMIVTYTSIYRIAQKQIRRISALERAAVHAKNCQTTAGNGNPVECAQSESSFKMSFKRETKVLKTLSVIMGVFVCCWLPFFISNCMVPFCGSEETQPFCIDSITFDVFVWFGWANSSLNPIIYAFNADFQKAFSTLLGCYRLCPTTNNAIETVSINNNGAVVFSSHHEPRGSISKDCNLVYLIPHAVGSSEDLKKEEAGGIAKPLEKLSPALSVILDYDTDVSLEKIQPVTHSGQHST

[9] = biological target: Sodium-dependent dopamine transporter (Rattus norvegicus, UniProt P23977); experiment: Displacement of [3H]DA from rat DAT
Sequence of Sodium-dependent dopamine transporter (P23977 whole entry): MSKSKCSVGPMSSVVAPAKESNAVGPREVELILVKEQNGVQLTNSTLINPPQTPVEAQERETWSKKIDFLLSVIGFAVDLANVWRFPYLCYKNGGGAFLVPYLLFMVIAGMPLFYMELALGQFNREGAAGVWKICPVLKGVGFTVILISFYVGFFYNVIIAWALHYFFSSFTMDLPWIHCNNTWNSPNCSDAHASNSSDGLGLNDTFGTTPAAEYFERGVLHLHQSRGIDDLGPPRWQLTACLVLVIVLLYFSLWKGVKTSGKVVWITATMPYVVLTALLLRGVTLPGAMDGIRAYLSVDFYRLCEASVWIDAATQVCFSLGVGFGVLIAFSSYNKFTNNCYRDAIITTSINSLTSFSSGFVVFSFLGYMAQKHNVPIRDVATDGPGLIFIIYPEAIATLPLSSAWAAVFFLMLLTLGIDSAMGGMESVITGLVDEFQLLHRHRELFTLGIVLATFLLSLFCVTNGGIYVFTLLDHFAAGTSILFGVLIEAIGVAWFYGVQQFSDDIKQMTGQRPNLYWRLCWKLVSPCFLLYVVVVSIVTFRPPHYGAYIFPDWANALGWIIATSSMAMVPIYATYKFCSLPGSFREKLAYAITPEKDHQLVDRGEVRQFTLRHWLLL

[10] = system: PC-12; experiment: Reduction of dopamine level in catecholamine-inducing rat PC12 cells; format: functional, cell-based
[11] = system: Rattus norvegicus; experiment: Displacement of [3H]SCH-23390 from rat dopamine D1 receptor at 40 mg/kg, ip; format: functional; details: route intraperitoneal
[12] = system: Rattus norvegicus; experiment: Displacement of [3H]raclopride from rat dopamine D2 receptor at 40 mg/kg, ip; format: functional; details: route intraperitoneal
[13] = system: Rattus norvegicus; experiment: Inhibition of apomorphine-induced yawning in rat at 40 mg/kg, ip; format: functional; set-up: scale not given: the % may be the effect or the level left; details: route intraperitoneal
[14] = system: Rattus norvegicus; experiment: Inhibition of apomorphine-induced penile erection in rat at 40 mg/kg, ip; format: functional; set-up: scale not given: the % may be the effect or the level left; details: route intraperitoneal
[15] = biological target: Tyrosine 3-monooxygenase (Homo sapiens, UniProt P07101); experiment: Inhibition of tyrosine hydroxylase
Sequence of Tyrosine 3-monooxygenase (P07101 whole entry): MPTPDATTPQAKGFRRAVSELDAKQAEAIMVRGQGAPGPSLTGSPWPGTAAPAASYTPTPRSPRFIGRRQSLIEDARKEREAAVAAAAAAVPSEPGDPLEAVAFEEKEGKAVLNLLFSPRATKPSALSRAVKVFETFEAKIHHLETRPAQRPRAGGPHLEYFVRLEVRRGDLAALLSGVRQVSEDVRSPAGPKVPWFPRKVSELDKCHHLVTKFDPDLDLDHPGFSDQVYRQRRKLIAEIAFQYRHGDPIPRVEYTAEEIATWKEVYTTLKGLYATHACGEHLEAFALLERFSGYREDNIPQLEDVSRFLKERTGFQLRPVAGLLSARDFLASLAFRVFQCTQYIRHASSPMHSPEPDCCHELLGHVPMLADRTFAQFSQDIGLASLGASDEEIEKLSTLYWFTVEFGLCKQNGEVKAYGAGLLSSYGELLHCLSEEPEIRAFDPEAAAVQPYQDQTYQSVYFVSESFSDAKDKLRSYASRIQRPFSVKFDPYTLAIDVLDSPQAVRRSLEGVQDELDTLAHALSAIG

Sequence of Tyrosine 3-monooxygenase (Rattus norvegicus) (P04177 whole entry, looked up): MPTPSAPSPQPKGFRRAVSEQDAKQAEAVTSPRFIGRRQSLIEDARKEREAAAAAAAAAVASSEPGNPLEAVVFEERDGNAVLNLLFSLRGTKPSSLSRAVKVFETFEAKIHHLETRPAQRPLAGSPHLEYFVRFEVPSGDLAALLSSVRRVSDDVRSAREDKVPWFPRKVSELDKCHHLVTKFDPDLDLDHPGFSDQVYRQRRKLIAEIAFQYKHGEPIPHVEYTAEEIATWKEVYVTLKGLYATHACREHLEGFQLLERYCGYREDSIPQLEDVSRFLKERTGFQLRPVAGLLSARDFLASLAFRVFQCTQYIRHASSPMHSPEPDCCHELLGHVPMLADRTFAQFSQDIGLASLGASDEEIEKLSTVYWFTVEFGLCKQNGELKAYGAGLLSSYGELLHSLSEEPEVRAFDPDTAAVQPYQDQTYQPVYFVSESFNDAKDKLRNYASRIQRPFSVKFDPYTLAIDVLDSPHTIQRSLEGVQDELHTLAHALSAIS

## CCCN1CCc2cccc3c2[C@@H]1Cc1ccc(O)c(O)c1-3
[1]
  ED50: 1.6 µmol/kg
[2]
  pIC50: 6.00

## CN1CCc2cccc3c2[C@@H]1Cc1ccc(O)c(O)c1-3 [(S)APOMORPHINE]
[1]
  ED50: 8.4 µmol/kg

## CN1CCc2ccc3[nH]c(=O)c4cccc5c4c3c2[C@H]1C5
[3]
  pKi: 7.26
[4]
  pKi: 7.26
[5]
  pKi: 6.74
[6]
  pKi: 7.26

## CN1CCc2cc3c(c4c2C1Cc1cccc(O)c1-4)OCO3 (stereo unspecified) [PUKATEINE]
[7]
  pIC50: 4.82
[8]
  pIC50: 6.40
[4]
  pIC50: 6.22
[9]
  pIC50: 4.34

## COc1ccc2c(c1O)-c1c3c(cc4c1[C@H](C2)N(C)CC4)OCO3 [(S)-BULBOCAPNINE]
[10]
  pIC50: 4.57

## COc1cc2c(cc1OC)-c1c(OC)c(OC)cc3c1[C@H](C2)N(C)CC3 [GLAUCINE]
[11]
  Activity: 50%
[12]
  Activity: 50%
[13]
  Activity: 50%
[14]
  Activity: 50%
[8]
  pKi: 5.54
[4]
  pKi: 5.55

## CCCN1CCc2cccc3c2[C@@H]1Cc1cccc(O)c1-3
[15]
  pIC50: 4.06

## CCCN1CCc2cccc3c2[C@H]1Cc1ccc(O)c(O)c1-3 [R-N-PROPYLNORAPOMORPHINE]
[1]
  ED50: 0.002 µmol/kg
[2]
  pIC50: 6.52

## CCCN1CCc2cccc3c2[C@H]1Cc1cccc(O)c1-3
[1]
  ED50: 0.0047 µmol/kg
[15]
  pIC50: 4.38

## COc1cc2c(cc1O)C[C@H]1c3c(cc(O)c(OC)c3-2)CCN1C [BOLDINE]
[11]
  Activity: 25%
[13]
  Activity: 50%
[14]
  Activity: 50%
